Like-named read-outs stand apart in the source and are kept apart here.
Tested on: iCell endothelial cells (human iPSC-derived ECs)
Assay: High-content imaging cytotoxicity in iCell endothelial cells, 24 h
Assay type: cell-based
Details: Homo sapiens, Endothelial cell, iPSC-EC, 24 hr; for viability at 0.1 µM / activity at 0.1 µM: 0.10 µM; for minimal effective concentration: top concentration 100.00 µM
How it was run: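 Readouts were vehicle-normalised and fitted to a four-parameter logistic model. POD was set at one SD beyond 0.5% DMSO control means, and 100 µM was assigned when no response was seen. Cells were monolayers of iCell endothelial cells imaged after 24 h compound exposure using nuclear, mitochondrial and calcein dyes.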

[1] = 0.00 µM control = 100.00, read-out: endo.cyto.24hr
[2] = 0.00 µM control = 100.00, read-out: endo.mito.24hr
[3] = 0.00 µM control = 100.00, read-out: endo.mitoint.24hr
[4] = 0.00 µM control = 100.00, read-out: endo.nma.24hr
[5] = 0.00 µM control = 100.00, read-out: endo.tc.24hrs
[6] = read-out: endo.mitoint.24hr POD

`Oc1cc(Cl)cc(-c2cccc(Cl)c2)c1` [5-OH PCB 11] showed a viability at 0.01 µM [1] of 99.9%, an activity at 0.01 µM [2] of 100% and an activity at 0.01 µM [3] of 96.8%. For the same molecule, the activity at 0.01 µM [4] was 101%, the viability at 0.01 µM [5] was 99.9% and the viability at 0.1 µM [1] was 100%. For the same molecule, the activity at 0.1 µM [2] was 100%, the activity at 0.1 µM [3] was 93.5% and the activity at 0.1 µM [4] was 100%. For the same molecule, the viability at 0.1 µM [5] was 100%, the viability at 1 µM [1] was 102% and the activity at 1 µM [2] was 103%. The activity at 1 µM [3] was 92.3%, the activity at 1 µM [4] was 99.2% and the viability at 1 µM [5] was 102%. The viability at 10 µM [1] was 102%, the activity at 10 µM [2] was 103% and the activity at 10 µM [3] was 107%. It also gave an activity at 10 µM [4] of 98.6%, a viability at 10 µM [5] of 102% and a viability at 100 µM [1] of 19.9%. It also gave an activity at 100 µM [2] of 30.3%, an activity at 100 µM [3] of 62.5% and an activity at 100 µM [4] of 79.6%. It also gave a viability at 100 µM [5] of 47.2%, a minimal effective concentration (read-out: endo.cyto.24hr POD) of 42.3 µM and a minimal effective concentration (read-out: endo.mito.24hr POD) of 42.3 µM. The minimal effective concentration [6] was 55 µM, the minimal effective concentration (read-out: endo.nma.24hr POD) was 14.2 µM and the minimal effective concentration (read-out: endo.tc.24hrs POD) was 43.2 µM.
For `Clc1ccc(-c2ccccc2)cc1` [PCB3], the viability at 0.01 µM [1] was 101%, the activity at 0.01 µM [2] was 101% and the activity at 0.01 µM [3] was 126%. It also gave an activity at 0.01 µM [4] of 97.7%, a viability at 0.01 µM [5] of 101% and a viability at 0.1 µM [1] of 100%. The activity at 0.1 µM [2] was 101%, the activity at 0.1 µM [3] was 109% and the activity at 0.1 µM [4] was 98%. For the same molecule, the viability at 0.1 µM [5] was 100%, the viability at 1 µM [1] was 107% and the activity at 1 µM [2] was 107%. It also gave an activity at 1 µM [3] of 104%, an activity at 1 µM [4] of 95.8% and a viability at 1 µM [5] of 107%. It also gave a viability at 10 µM [1] of 106%, an activity at 10 µM [2] of 105% and an activity at 10 µM [3] of 100%. The activity at 10 µM [4] was 94.8%, the viability at 10 µM [5] was 106% and the viability at 100 µM [1] was 105%. For the same molecule, the activity at 100 µM [2] was 106%, the activity at 100 µM [3] was 102% and the activity at 100 µM [4] was 95.7%. The viability at 100 µM [5] was 105%, the minimal effective concentration (read-out: endo.cyto.24hr POD) was 100 µM and the minimal effective concentration (read-out: endo.mito.24hr POD) was 100 µM. For the same molecule, the minimal effective concentration [6] was 100 µM, the minimal effective concentration (read-out: endo.nma.24hr POD) was 100 µM and the minimal effective concentration (read-out: endo.tc.24hrs POD) was 100 µM.
`Clc1cccc(-c2cccc(Cl)c2)c1` [PCB11] gave a viability at 0.01 µM [1] of 99.3%, an activity at 0.01 µM [2] of 99.6% and an activity at 0.01 µM [3] of 100%. It also gave an activity at 0.01 µM [4] of 101%, a viability at 0.01 µM [5] of 99.3% and a viability at 0.1 µM [1] of 95.3%. It also gave an activity at 0.1 µM [2] of 96%, an activity at 0.1 µM [3] of 97.8% and an activity at 0.1 µM [4] of 102%. For the same molecule, the viability at 0.1 µM [5] was 95.3%, the viability at 1 µM [1] was 96.6% and the activity at 1 µM [2] was 97%. The activity at 1 µM [3] was 96.1%, the activity at 1 µM [4] was 99.7% and the viability at 1 µM [5] was 96.6%. The viability at 10 µM [1] was 99%, the activity at 10 µM [2] was 99.4% and the activity at 10 µM [3] was 107%. It also gave an activity at 10 µM [4] of 100%, a viability at 10 µM [5] of 99% and a viability at 100 µM [1] of 104%. It also gave an activity at 100 µM [2] of 105%, an activity at 100 µM [3] of 92.6% and an activity at 100 µM [4] of 100%. It also gave a viability at 100 µM [5] of 104%, a minimal effective concentration (read-out: endo.cyto.24hr POD) of 100 µM and a minimal effective concentration (read-out: endo.mito.24hr POD) of 100 µM. For the same molecule, the minimal effective concentration [6] was 100 µM, the minimal effective concentration (read-out: endo.nma.24hr POD) was 100 µM and the minimal effective concentration (read-out: endo.tc.24hrs POD) was 100 µM.
`Clc1ccc(Cl)c(-c2cc(Cl)ccc2Cl)c1` [PCB52] showed a viability at 0.01 µM [1] of 100%, an activity at 0.01 µM [2] of 99.8% and an activity at 0.01 µM [3] of 92.8%. The activity at 0.01 µM [4] was 103%, the viability at 0.01 µM [5] was 100% and the viability at 0.1 µM [1] was 98.4%. For the same molecule, the activity at 0.1 µM [2] was 97.7%, the activity at 0.1 µM [3] was 87.4% and the activity at 0.1 µM [4] was 103%. It also gave a viability at 0.1 µM [5] of 98.4%, a viability at 1 µM [1] of 97.6% and an activity at 1 µM [2] of 97.5%. For the same molecule, the activity at 1 µM [3] was 92%, the activity at 1 µM [4] was 100% and the viability at 1 µM [5] was 97.6%. For the same molecule, the viability at 10 µM [1] was 99.3%, the activity at 10 µM [2] was 99.4% and the activity at 10 µM [3] was 86.3%. The activity at 10 µM [4] was 101%, the viability at 10 µM [5] was 99.3% and the viability at 100 µM [1] was 97.2%. The activity at 100 µM [2] was 97.4%, the activity at 100 µM [3] was 83.6% and the activity at 100 µM [4] was 100%. For the same molecule, the viability at 100 µM [5] was 97.2%, the minimal effective concentration (read-out: endo.cyto.24hr POD) was 100 µM and the minimal effective concentration (read-out: endo.mito.24hr POD) was 100 µM. For the same molecule, the minimal effective concentration [6] was 100 µM, the minimal effective concentration (read-out: endo.nma.24hr POD) was 100 µM and the minimal effective concentration (read-out: endo.tc.24hrs POD) was 100 µM.

Reference: PMC7377239, “Cardiovascular Effects of Polychlorinated Biphenyls and Their Major Metabolites” (Environmental Health Perspectives, 2020)
